Test [1] addresses HBV C150Bo protein (mutant C150 HBV capsid protein labeled with BoDIPY-FL) (Hepatitis B virus genotype D subtype adw, UniProt P03147, C107A/C48A/C61A/R150C). Description: HBV assembly assay (fluorescence quenching in vitro capsid assembly). The test is classed as biochemical. Conditions: for Activity (HBV assembly assay): at about 10 μM, 50 mM Hepes pH 7.5, 150 mM NaCl, 1 hour at room temperature; for IC50: HBV assembly assay, read-out: Activity (HBV assembly potency, IC50).

The test system of test [2] is HBV replication in HepG2-2.2.15 cells. Put plainly: Dot-blot assay: inhibition of HBV replication in HBV-producing hepatoma cell line. Type of test: cell-based. Particulars: Hepatitis B virus, 144 h, six days, reduction in HBV DNA levels. How it is done:
Compounds active in the HBV assembly assay are tested for their activity and toxicity in cellular assay. In the first anti-viral assay, the ability of compounds to inhibit HBV replication in an HBV-producing hepatoma cell line using the dot-blot method is evaluated.
Briefly, confluent monolayers of HepG2-2.2.15 cells are incubated with complete medium containing various concentrations of a test compound. Three days later, the culture medium is replaced with fresh medium containing the appropriately diluted test compound. Six days following the initial administration of the test compound, the cell culture supernatant is collected, and cell lysis is performed. The samples are applied onto Nylos membranes and DNA is immobilized to the membrane by UV cross-linking. After pre-hybridization, the HBV probe is added and the hybridization is performed overnight. The membranes are exposed to the Kodak films; antiviral activity is calculated from the reduction in HBV DNA levels (EC50). The EC50 for antiviral activity is calculated from the dose response curves of active compounds. Assay performance over time is monitored by the use of the standard positive control compounds ETV, BAY 41-4109, and HAP-1.
In the first anti-viral assay, the ability of compounds to inhibit HBV replication in an HBV-producing hepatoma cell line using the dot-blot method was evaluated.
Confluent monolayers of HepG2-2.2.15 cells were incubated with complete medium containing various concentrations of a test compound. Three days later, the culture medium was replaced with fresh medium containing the appropriately diluted test compound. Six days following the initial administration of the test compound, the cell culture supernatant was collected, and cell lysis was performed. The samples were applied onto Nylos membranes and DNA was immobilized to the membrane by UV cross-linking. After pre-hybridization, the HBV probe was added and the hybridization was performed overnight. The membranes were exposed to the Kodak films; antiviral activity was calculated from the reduction in HBV DNA levels (EC50). The EC50 for antiviral activity was calculated from the dose response curves of active compounds. Assay performance over time was monitored by the use of the standard positive control compounds ETV, BAY 41-4109, and HAP-1.

Consider 33 compounds from US9758489B2, “Azepane derivatives and methods of treating hepatitis B infections” (Novira Therapeutics, Inc., priority 2013, dated 2017).

HBV C150Bo protein (mutant C150 HBV capsid protein labeled with BoDIPY-FL), sequence (P03147 1-150 C48A/C61A/C107A/R150C): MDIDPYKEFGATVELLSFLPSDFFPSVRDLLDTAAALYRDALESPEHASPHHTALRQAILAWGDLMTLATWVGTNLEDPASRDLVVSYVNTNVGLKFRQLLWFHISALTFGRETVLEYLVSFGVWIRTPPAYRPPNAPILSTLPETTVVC

Consider `O=C(Nc1ccc(F)c(F)c1)N1CCCN(c2c(Cl)cncc2Cl)CC1` [Compound 004], for which the “Activity (HBV assembly assay)” value in test [1] was “+ (>50% activity at about 10 μM)”.

On to `O=C(Nc1ccc(F)c(Cl)c1)N1CCCN(c2c(Cl)cncc2Cl)CC1` [Compound 005], for which, in test [1], the “Activity (HBV assembly assay)” value is “+ (>50% activity at about 10 μM)”. One may read the inhibition as how much of the control response was suppressed. The low end stands for little suppression, the high end for strong suppression. Regarding `O=C(Nc1cccc(Cl)c1)N1CCCN(c2c(Cl)cncc2Cl)CC1` [Compound 010], in test [1], the “Activity (HBV assembly assay)” value is “+ (>50% activity at about 10 μM)”. For the same compound, the inhibition at 10 µM in test [2] was > 50%. In the same order, the values of `O=C(Nc1cccc(F)c1)N1CCCN(c2c(Cl)cncc2Cl)CC1` [Compound 011] are “+ (>50% activity at about 10 μM)” and > 50%. Regarding `O=C(Nc1cc(F)c(F)c(F)c1)N1CCCN(c2c(Cl)cncc2Cl)CC1` [Compound 025], the inhibition at 10 µM in test [2] is > 50%.

Consider `O=C(Nc1ccc(F)c(Cl)c1)N1CCCN(c2c(Cl)cncc2Cl)CC1` [Compound 040], for which, in test [2], the inhibition at 10 µM was > 50%. For the compound `O=C(Nc1ccc(F)c(Cl)c1)N1CCCN(c2ccnc(Cl)c2Cl)CC1` [Compound 041], the inhibition at 10 µM in test [2] is > 50%. With `Cc1cncc(Cl)c1N1CCCN(C(=O)Nc2ccc(F)c(Cl)c2)CC1` [Compound 044], in test [1], the “Activity (HBV assembly assay)” value is recorded as “+ (>50% activity at about 10 μM)”. Further, the inhibition at 10 µM in test [2] is > 50%.

Consider `O=C(Nc1ccc(F)c(Cl)c1)N1CCCN(c2c(F)cncc2Cl)CC1` [Compound 045], for which the “Activity (HBV assembly assay)” value in test [1] is recorded as “+ (>50% activity at about 10 μM)”. In test [2], the inhibition at 10 µM was > 50%.

For the compound `Cc1cncc(C)c1N1CCCN(C(=O)Nc2ccc(F)c(Cl)c2)CC1` [Compound 047], the “Activity (HBV assembly assay)” value in test [1] is reported as “+ (>50% activity at about 10 μM)”. For the same compound, the inhibition at 10 µM in test [2] was > 50%. For `O=C(Nc1ccc(Cl)c(F)c1)N1CCCN(c2c(Cl)cncc2Cl)CC1` [Compound 049], the inhibition at 10 µM in test [2] is > 50%.

As for `O=C(Nc1ccc(F)c(Cl)c1)C1CCCN(c2c(Cl)cncc2Cl)CC1` (stereo not shown) [Compound 055], the “Activity (HBV assembly assay)” value in test [1] is recorded as “+ (>50% activity at about 10 μM)”. Consider `O=C(Nc1ccc(F)c(F)c1)C1CCCN(c2c(Cl)cncc2Cl)CC1` (stereo not shown) [Compound 056], for which, in test [1], the “Activity (HBV assembly assay)” value is recorded as “+ (>50% activity at about 10 μM)”. In addition, the inhibition at 10 µM in test [2] is > 50%. In the case of `O=C(Nc1ccc(F)c(Cl)c1)N1CC2CC(C1)N(c1c(Cl)cncc1Cl)C2` (stereo not shown) [Compound 065], the inhibition at 10 µM in test [2] is > 50%.

For `O=C(Nc1ccc(F)c(Cl)c1)N1CC2CC1CCN2c1c(Cl)cncc1Cl` (stereo not shown) [Compound 077], the inhibition at 10 µM in test [2] was > 50%. For `CC1CN(c2c(Cl)cncc2Cl)CCCN1C(=O)Nc1ccc(F)c(Cl)c1` (stereo not shown) [Compound 087], in test [2], the inhibition at 10 µM is > 50%. The IC50 is the point on the concentration scale where inhibition reaches its midpoint. As to `O=C(Nc1ccc(F)c(Cl)c1)N1CCCN(c2c(Cl)cncc2Cl)CC1Cc1ccccc1` (stereo not shown) [Compound 091], in test [1], the IC50 was < 20 µM and the “Activity (HBV assembly assay)” value is reported as “+ (>50% activity at about 10 μM)”. Take `CC1CCN(c2c(Cl)cncc2Cl)CCN1C(=O)Nc1ccc(F)c(Cl)c1` (stereo not shown) [Compound 092]: in test [1], the IC50 was < 20 µM and the “Activity (HBV assembly assay)” value is on record as “+ (>50% activity at about 10 μM)”. For the same compound, in test [2], the inhibition at 10 µM is > 50%. Turning to `CC1CN(C(=O)Nc2ccc(F)c(Cl)c2)CCN(c2c(Cl)cncc2Cl)C1` (stereo not shown) [Compound 097], in test [1], the “Activity (HBV assembly assay)” value is “+ (>50% activity at about 10 μM)”. The inhibition at 10 µM in test [2] is > 50%. For `COC(=O)C1CN(C(=O)Nc2ccc(F)c(Cl)c2)CCN(c2c(Cl)cncc2Cl)C1` (stereo not shown) [Compound 098], in test [1], the “Activity (HBV assembly assay)” value is reported as “+ (>50% activity at about 10 μM)”.

Consider `O=C(Nc1ccc(F)c(Cl)c1)N1CCN(c2c(Cl)cncc2Cl)CC(CO)C1` (stereo not shown) [Compound 099], for which the “Activity (HBV assembly assay)” value in test [1] is “+ (>50% activity at about 10 μM)”. Also, the inhibition at 10 µM in test [2] was > 50%. In the same order, the values of `O=C(Nc1ccc(F)c(Cl)c1)N1CCN(c2c(Cl)cncc2Cl)CC(O)C1` (stereo not shown) [Compound 100] are “+ (>50% activity at about 10 μM)” and > 50%. In the case of `CCc1cncc(Cl)c1N1CCCN(C(=O)Nc2ccc(F)c(Cl)c2)CC1` [Compound 107], in test [1], the IC50 is < 20 µM and the “Activity (HBV assembly assay)” value is reported as “+ (>50% activity at about 10 μM)”. Also, in test [2], the inhibition at 10 µM is > 50%. As to `CCc1cncc(Cl)c1N1CCCN(C(=O)Nc2cccc(Cl)c2)CC1` [Compound 108], in test [1], the IC50 is < 20 µM and the “Activity (HBV assembly assay)” value is “+ (>50% activity at about 10 μM)”. For the compound `O=C(Nc1ccc(F)c(Cl)c1)N1CCCN(c2c(Cl)cncc2C2CC2)CC1` [Compound 109], in test [1], the IC50 is < 20 µM and the “Activity (HBV assembly assay)” value is on record as “+ (>50% activity at about 10 μM)”. The inhibition at 10 µM in test [2] is > 50%. With `O=C(Nc1cccc(Cl)c1)N1CCCN(c2c(Cl)cncc2C2CC2)CC1` [Compound 110], in test [1], the IC50 is < 20 µM and the “Activity (HBV assembly assay)” value is “+ (>50% activity at about 10 μM)”. Take `O=C(Nc1ccc(F)c(Cl)c1)N1CCCN(c2c(Cl)cncc2Cc2ccccc2)CC1` [Compound 115]: in test [2], the inhibition at 10 µM is > 50%. As to `O=C(Nc1ccc(F)c(F)c1)N1C2CCC1CN(c1c(Cl)cncc1Cl)CC2` (stereo not shown) [Compound 120], the “Activity (HBV assembly assay)” value in test [1] is “+ (>50% activity at about 10 μM)”. Moreover, the inhibition at 10 µM in test [2] was > 50%. For the compound `O=C(Nc1ccc(F)c(Cl)c1)N1C2CCC1CN(c1c(Cl)cncc1Cl)CC2` (stereo not shown) [Compound 121], in test [2], the inhibition at 10 µM was > 50%. On to `O=C(Nc1ccc(F)c(Cl)c1)N1CCCN(c2c(Cl)cncc2CO)CC1` [Compound 126], for which, in test [2], the inhibition at 10 µM was > 50%. For `COCCc1cncc(Cl)c1N1CCCN(C(=O)Nc2ccc(F)c(Cl)c2)CC1` [Compound 129], the inhibition at 10 µM in test [2] was > 50%.

In the case of `COC1CN(C(=O)Nc2ccc(F)c(Cl)c2)CCN(c2c(Cl)cncc2Cl)C1` (stereo not shown) [Compound 130], the inhibition at 10 µM in test [2] is > 50%. On to `CCOC1CN(C(=O)Nc2ccc(F)c(Cl)c2)CCN(c2c(Cl)cncc2Cl)C1` (stereo not shown) [Compound 131], for which the inhibition at 10 µM in test [2] was > 50%.
